Measurements reported in publication PMC3479139, “Diverse Small Molecule Inhibitors of Human Apurinic/Apyrimidinic Endonuclease APE1 Identified from a Screen of a Large Public Collection” (PLoS ONE, 2012).

Experiments:
[1] = biological target: T1, APE1 (Homo sapiens, UniProt P27695); assay: Gel-based radiotracer (32P) APE1 incision assay; type: biochemical; parameters: concentration or dose not given beside the values; conditions: percent incision shown; entries 1-112;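 further: APE1 incision reactions ran 5 min at 37 °C, with cleaved product and intact substrate resolved electrophoretically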
T1 construct: made in house
T1 sequence (P27695 whole entry): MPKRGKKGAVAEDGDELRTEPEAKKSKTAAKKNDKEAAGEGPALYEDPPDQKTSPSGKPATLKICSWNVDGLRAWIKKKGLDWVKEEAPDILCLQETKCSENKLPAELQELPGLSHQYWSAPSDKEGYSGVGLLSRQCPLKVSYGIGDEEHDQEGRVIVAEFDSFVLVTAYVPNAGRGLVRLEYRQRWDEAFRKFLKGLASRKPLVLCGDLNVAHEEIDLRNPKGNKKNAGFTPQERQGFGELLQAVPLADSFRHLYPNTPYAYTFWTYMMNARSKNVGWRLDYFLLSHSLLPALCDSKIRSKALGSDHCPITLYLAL

[2] = biological target: T1, APE1; assay: Fluorescence polarization (FP) displacement assay of APE1 binding to AP-DNA probe; conditions: read-out: FP IC50;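 further: TAMRA 5′-labeled duplex DNA with THF abasic site (5 nM) and APE1 (20 nM), Mg2+-free buffer, 15 min at room temperature, inhibition seen as lowered polarization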
[3] = biological target: T1, APE1; assay: Fluorogenic kinetic qHTS APE1 incision assay (primary screen and retest of cherrypicked samples); type: biochemical;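 further: purified APE1 cleaving a fluorophore/dark-quencher labelled 17-mer duplex DNA bearing a tetrahydrofuran AP site, fluorescence rise followed kinetically over the first 2 min, inhibition normalized to controls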
[4] = biological target: T2, E. coli Endo IV (Escherichia coli, UniProt P0A6C1); assay: E. coli Endo IV profiling counterscreen; type: biochemical; conditions: read-out: EndoIV IC50;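 further: selectivity counterscreen of candidate APE1 inhibitors against the bacterial endonuclease Endo IV, run in the same assay format as the primary APE1 high-throughput screen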
T2 construct: made in house
From the text: (§1) In order to screen out nonselective compounds, such as non-specific DNA binders and inhibitors of related enzymes, we used a miniaturized ThO DNA displacement assay and a counterscreen against the bacterial endonuclease E. coli Endo IV, respectively, following the previously published protocols [21].
To probe the selectivity of the candidate APE1 inhibitors, we tested them against E. coli EndoIV [36], employing the same assay as used in the HTS.

[5] = biological target: double-stranded 17-mer DNA fragment; assay: ThO (Thiazole Orange) DNA displacement assay; type: binding; conditions: read-out: ThO-DNA binding IC50;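 further: miniaturized displacement of the intercalating dye from unlabeled duplex DNA, used to flag nonspecific DNA binders, chiefly intercalators, groove binders may be missed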
From the text: The double-stranded 17-mer DNA fragment used in the ThO DNA binding assay was of the same sequence as the fluorogenic HTS substrate but carried no dye labels.
as §1
To detect screening hits that inhibit APE1 activity through non-specific DNA interactions, we employed a previously established miniaturized ThO dye displacement assay [21]. […] We note that the ThO assay reports primarily on DNA binders acting through intercalation, while potentially missing other types of DNA binders, such as those acting through the minor groove.

[6] = initial quantitative high-throughput screen, read-out: APE1 qHTS IC50
[7] = retest of cherrypicked sample, read-out: APE1 Retest IC50

SMILES	Radiotracer Assay (%Activity) [1] [%]	IC50 [2] [µM]	IC50 [3, 6] [µM]	IC50 [3, 7] [µM]	IC50 [4] [µM]	IC50 [5] [µM]	IC50 ([3]; control on every assay plate, average over screen, read-out: IC50 of intra-plate control titration) [µM]
O=c1/c(=C/c2ccco2)sc2nc(-c3ccccc3Br)nn12 [MLS000039532]	9	> 57	22.4	7.9	> 57	> 57	
O=C(Nc1ccc2nc(-c3ccco3)c(-c3ccco3)nc2c1)N1CCCCCC1 [MLS000050353]	41	12.6	3.5	4	15.8	> 57	
O=C1CC(=O)N(Cc2ccco2)C(=O)N1 [MLS000062734]	14	> 57	10	5.6	> 57	> 57	
CCn1c(SCC(=O)O)nc2sc3c(c2c1=O)CCC3 [MLS000069140]	22.3	> 57	22.4	12.6	> 57	> 57	
CCOC(=O)C1CCN(/C=C2/C(=O)NC(=O)N(Cc3ccco3)C2=O)CC1 [MLS000113273]	3	> 57	14.1	3.2	> 57	> 57	
CCCSC1=N/C(=C\C=C\c2ccco2)C(=O)S1 [MLS000114057]	40	> 57	4	17.8	> 57	> 57	
COc1ccc(N2Cc3cccc(C(=O)O)c3C2=O)cc1 [MLS000120697]	37	7.9	12.6	3.9	> 57	> 57	
O=C(COC(=O)c1cc2c(s1)CCC2)Nc1ccc(F)cc1 [MLS000334872]	39	12.6		10	> 57	> 57	
Cc1ccc(NC(=O)CN2C(=O)S/C(=C/c3ccc(-c4cc(C(=O)O)ccc4C)o3)C2=O)cc1C [MLS000530771]	21	10	19.9	7.1	> 57	> 57	
CSC1=N/C(=C\c2ccc(Br)o2)C(=O)S1 [MLS000534059]	36	> 57		8.9	> 57	> 57	
CC(=O)c1ccc(NC(=O)c2ccc3nc(-c4ccco4)c(-c4ccco4)nc3c2)cc1 [MLS000534769]	11	> 57	19.9	4	10	8.9	
N#Cc1ccccc1CN1C(=O)S/C(=C/c2cccn2-c2cccc(C(=O)O)c2)C1=O [MLS000539676]	25	> 57	19.9	14.1	> 57	> 57	
Cc1ccc(NC(=O)CN2C(=O)S/C(=C\c3cccn3-c3cccc(C(=O)O)c3)C2=O)c(C)c1 [MLS000540800]	0	15.8	8.9	12.6	> 57	> 57	
CC1(CC(=O)N/N=C/c2cc([N+](=O)[O-])c(O)cc2O)OCCO1 [MLS000548032]	13	> 57	14.1	12.6	> 57	> 57	
O=C(COC(=O)C1CC(=O)N(Cc2ccco2)C1)c1ccc(OC(=O)c2ccccc2)cc1 (stereo not drawn) [MLS000548444]	35				10	> 57	
O=C(Cc1ccc(S(=O)(=O)N2CCOCC2)s1)Nc1nc2c(s1)CCCC2 [MLS000567201]					> 57	15.8	
CC1(C)C(=O)CC[C@]2(C)C3C(=O)C=C4[C@H]5C[C@@](C)(C(=O)O)CC[C@]5(C)CC[C@]4(C)[C@]3(C)CC[C@@H]12 (stereo partly drawn) [MLS000697684]					> 57	> 57	
Cc1ccc(C)c(OCCn2ccnc2)c1 [MLS000974607]					> 57	> 57	
O=C(CCC(=O)c1ccc(Oc2ccccc2)cc1)Nc1ccc(C(=O)O)cc1 [MLS001001328]					> 57	> 57	
O=C(COC(=O)/C=C/c1ccco1)NCc1ccco1 [MLS001004396]					> 57	> 57	
O=C(COC(=O)/C=C/c1ccco1)NCc1ccc2c(c1)OCO2 [MLS001006993]					> 57	> 57	

SMILES	Radiotracer Assay (%Activity) [1] [%]	IC50 [2] [µM]	IC50 [3, 6] [µM]	IC50 [3, 7] [µM]	IC50 [4] [µM]	IC50 [5] [µM]	IC50 ([3]; control on every assay plate, average over screen, read-out: IC50 of intra-plate control titration) [µM]
O=C(O)C1C2C=CC(C2)C1C(=O)Nc1ccccc1Br (stereo not drawn) [MLS001008562]					> 57	> 57	
Cn1c(SCC(=O)Nc2nncs2)nnc1C1CC1 [MLS001060429]					> 57	> 57	
O=C(COc1ccccc1[N+](=O)[O-])Nc1cccc(S(=O)(=O)NC2=NCCCCC2)c1 [MLS001078387]					> 57	> 57	
CN(CC(=O)Nc1cccc(F)c1)C(=O)c1cc(-c2ccco2)nc2ccccc12 [MLS001156482]					> 57	40.8	
CC(C)OCCOc1ccc2oc(-c3ccco3)cc(=O)c2c1 [MLS001163009]					> 57	> 57	
COc1cc(/C=C(\C#N)C(=O)Nc2cccc(C(=O)O)c2)ccc1OCc1ccc(Cl)cc1 [MLS001172702]					> 57	> 57	
Cc1c(NS(=O)(=O)c2cc(C(=O)NCCN(C)C)ccc2Cl)c(=O)n(-c2ccccc2)n1C [MLS001175210]					> 57	> 57	
O=[N+]([O-])c1ccc(Cl)c(-c2ccc(/C=N/n3cnnc3)o2)c1 [MLS001194618]					> 57	> 57	
Cc1ccc2c(=O)cc(C(=O)NCCc3ccc(S(N)(=O)=O)cc3)oc2c1 [MLS001216111]					> 57	36.3	
COC(=O)c1c(C)[nH]c(C(=O)COc2ccc3ccc(=O)oc3c2)c1C [MLS002156353]					> 57		
COc1ccc(S(=O)(=O)N2CCN(C(=O)C3COc4ccccc4O3)CC2)cc1 (stereo not drawn) [MLS002159357]					> 57	> 57	
COc1ccccc1NC(=O)COC(=O)c1cc2c(s1)CCC2 [MLS002161511]					18.2	> 57	
CNS(=O)(=O)c1cccc(C(=O)OCC(=O)c2ccc[nH]2)c1 [MLS002163823]					> 57	> 57	
O=C(O)Cc1ccc(S(=O)(=O)N2CCCC2)s1 [MLS002245326]					> 57	> 57	
O=C(/C=C/c1ccco1)OCC(=O)N1CCCCC1 [MLS002246602]					> 57	> 57	
C=CCn1c(SCC(=O)Nc2sc3c(c2C#N)CCC(C)C3)nc2cc(C(=O)O)ccc2c1=O (stereo not drawn) [MLS002251505]					> 57	> 57	
NS(=O)(=O)c1ccc(CCNC(=O)c2ccc3nccnc3c2)cc1 [MLS002252586]					> 57	> 57	
COc1ccc(CNC(=O)COC(=O)c2ccc(S(=O)(=O)NCc3ccco3)cc2)cc1 [MLS002252767]					> 57	> 57	
N[C@H](Cc1ccc(O)c(O)c1)C(=O)O [NCGC00093869]	11.3		1	3.5	> 57	> 57	
O=C(O)c1cc[c]([Sb](=[O])([OH])[OH])cc1[N+](=O)[O-] [NSC-13755, reference compound]							0.035
